# Results: ChEMBL document CHEMBL1201862, “PubChem BioAssay data set” (2004)
#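 Exposure lasted 48 hours, with cells grown in 96-well plates and compounds tested at five concentrations. GI50: concentration for 50% inhibition of growth.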 Calls of active or inactive are those of the source. Rule as the data show it: active = GI50 up to about 1.1 µM and inactive = higher.
# Experiments:
# Assay in all cases: DTP human tumour cell line panel, 48 h
# [1] = tested on: 786-0
# [2] = tested on: A549
# [3] = tested on: ACHN
# [4] = tested on: CAKI-1
# [5] = tested on: CCRF-CEM
# [6] = tested on: COLO 205
# [7] = tested on: DLD-1
# [8] = tested on: DMS-114
# [9] = tested on: DMS-273
# [10] = tested on: EKVX
# [11] = tested on: HCC 2998
# [12] = tested on: HCT-116
# [13] = tested on: HCT-15
# [14] = tested on: HOP-62
# [15] = tested on: HT-29
# [16] = tested on: IGROV-1
# [17] = tested on: K562
# [18] = tested on: KM-20L2
# [19] = tested on: KM12
# [20] = tested on: LOX IMVI
# [21] = tested on: LXFL 529
# [22] = tested on: M14
# [23] = tested on: M19-MEL
# [24] = tested on: MOLT-4
# [25] = tested on: Malme-3M
# [26] = tested on: NCI-H226
# [27] = tested on: NCI-H23
# [28] = tested on: NCI-H460
# [29] = tested on: NCI-H522
# [30] = tested on: OVCAR-3
# [31] = tested on: OVCAR-4
# [32] = tested on: OVCAR-5
# [33] = tested on: OVCAR-8
# [34] = tested on: RPMI-8226
# [35] = tested on: RXF 631
# [36] = tested on: SF-268
# [37] = tested on: SF-295
# [38] = tested on: SF-539
# [39] = tested on: SK-MEL-28
# [40] = tested on: SK-MEL-2
# [41] = tested on: SK-MEL-5
# [42] = tested on: SN12C
# [43] = tested on: SNB-19
# [44] = tested on: SNB-75
# [45] = tested on: SNB-78
# [46] = tested on: SR
# [47] = tested on: SW-620
# [48] = tested on: U-251
# [49] = tested on: UACC-257
# [50] = tested on: UACC-62
# [51] = tested on: UO-31
# [52] = tested on: HOP-18
# [53] = tested on: HOP-92
# [54] = tested on: RXF 393
# [55] = tested on: SK-OV-3
# [56] = tested on: TK-10
# [57] = tested on: A498
# [58] = tested on: HL-60
smiles,measurement,setting,value
COc1ccc(C(C2=C(O)CC(C)OC2=O)C2=C(O)CC(C)OC2=O)cc1 (stereo not drawn),GI50,[1],> 100 µM (inactive)
same,GI50,[2],> 100 µM (inactive)
same,GI50,[3],> 100 µM (inactive)
same,GI50,[4],> 100 µM (inactive)
same,GI50,[5],> 100 µM (inactive)
same,GI50,[6],> 100 µM (inactive)
same,GI50,[7],> 100 µM (inactive)
same,GI50,[8],> 100 µM (inactive)
same,GI50,[9],> 100 µM (inactive)
same,GI50,[10],> 100 µM (inactive)
same,GI50,[11],> 100 µM (inactive)
same,GI50,[12],> 100 µM (inactive)
same,GI50,[13],> 100 µM
same,GI50,[14],> 100 µM (inactive)
same,GI50,[15],> 100 µM (inactive)
same,GI50,[16],> 100 µM (inactive)
same,GI50,[17],> 100 µM (inactive)
same,GI50,[18],> 100 µM (inactive)
same,GI50,[19],> 100 µM (inactive)
same,GI50,[20],> 100 µM (inactive)
same,GI50,[21],> 100 µM (inactive)
same,GI50,[22],> 100 µM (inactive)
same,GI50,[23],> 100 µM (inactive)
same,GI50,[24],> 100 µM (inactive)
same,GI50,[25],> 100 µM (inactive)
same,GI50,[26],> 100 µM (inactive)
same,GI50,[27],> 100 µM (inactive)
same,GI50,[28],> 100 µM (inactive)
same,GI50,[29],> 100 µM (inactive)
same,GI50,[30],> 100 µM (inactive)
same,GI50,[31],> 100 µM (inactive)
same,GI50,[32],> 100 µM (inactive)
same,GI50,[33],> 100 µM (inactive)
same,GI50,[34],> 100 µM (inactive)
same,GI50,[35],> 100 µM (inactive)
same,GI50,[36],> 100 µM (inactive)
same,GI50,[37],> 100 µM (inactive)
same,GI50,[38],> 100 µM (inactive)
same,GI50,[39],> 100 µM (inactive)
same,GI50,[40],> 100 µM (inactive)
same,GI50,[41],> 100 µM (inactive)
same,GI50,[42],> 100 µM (inactive)
same,GI50,[43],> 100 µM (inactive)
same,GI50,[44],> 100 µM (inactive)
same,GI50,[45],> 100 µM (inactive)
same,GI50,[46],> 100 µM (inactive)
same,GI50,[47],> 100 µM (inactive)
same,GI50,[48],> 100 µM (inactive)
same,GI50,[49],> 100 µM (inactive)
same,GI50,[50],> 100 µM (inactive)
same,GI50,[51],> 100 µM (inactive)
c1ccc(COCC2OC3c4ccccc4COC3C2OCc2ccccc2)cc1 (stereo not drawn),GI50,[1],> 100 µM (inactive)
same,GI50,[2],> 100 µM (inactive)
same,GI50,[3],> 100 µM (inactive)
same,GI50,[4],76.9 µM (inactive)
same,GI50,[6],> 100 µM (inactive)
same,GI50,[7],> 100 µM (inactive)
same,GI50,[8],49.5 µM (inactive)
same,GI50,[9],83.6 µM (inactive)
same,GI50,[10],> 100 µM (inactive)
same,GI50,[11],> 100 µM (inactive)
same,GI50,[12],71.3 µM (inactive)
same,GI50,[13],69.5 µM
same,GI50,[52],> 100 µM (inactive)
same,GI50,[53],19.4 µM (inactive)
same,GI50,[15],99.1 µM (inactive)
same,GI50,[16],> 100 µM (inactive)
same,GI50,[17],57.5 µM (inactive)
same,GI50,[18],> 100 µM (inactive)
same,GI50,[19],> 100 µM (inactive)
same,GI50,[22],> 100 µM (inactive)
same,GI50,[23],> 100 µM (inactive)
same,GI50,[24],48.8 µM (inactive)
same,GI50,[25],> 100 µM (inactive)
same,GI50,[26],> 100 µM (inactive)
same,GI50,[27],94.8 µM (inactive)
same,GI50,[28],71.6 µM (inactive)
same,GI50,[30],> 100 µM (inactive)
same,GI50,[31],> 100 µM (inactive)
same,GI50,[32],> 100 µM (inactive)
same,GI50,[33],> 100 µM (inactive)
same,GI50,[34],63 µM (inactive)
same,GI50,[54],32 µM (inactive)
same,GI50,[35],> 100 µM (inactive)
same,GI50,[37],77.3 µM (inactive)
same,GI50,[38],> 100 µM (inactive)
same,GI50,[39],> 100 µM (inactive)
same,GI50,[40],> 100 µM (inactive)
same,GI50,[41],70.6 µM (inactive)
same,GI50,[55],> 100 µM (inactive)
same,GI50,[42],> 100 µM (inactive)
same,GI50,[43],> 100 µM (inactive)
same,GI50,[44],39.6 µM (inactive)
same,GI50,[45],> 100 µM (inactive)
same,GI50,[46],57.8 µM (inactive)
same,GI50,[47],> 100 µM (inactive)
same,GI50,[56],> 100 µM (inactive)
same,GI50,[48],> 100 µM (inactive)
same,GI50,[49],61.2 µM (inactive)
same,GI50,[50],52.7 µM (inactive)
same,GI50,[51],> 100 µM (inactive)
O=C1Nc2ccccc2N=CC1NC(=O)C(c1ccccc1)c1ccccc1 (stereo not drawn),GI50,[1],> 100 µM (inactive)
same,GI50,[57],> 100 µM (inactive)
same,GI50,[2],> 100 µM (inactive)
same,GI50,[3],> 100 µM (inactive)
same,GI50,[4],> 100 µM (inactive)
same,GI50,[5],> 100 µM (inactive)
same,GI50,[6],> 100 µM (inactive)
same,GI50,[7],> 100 µM (inactive)
same,GI50,[8],86.5 µM (inactive)
same,GI50,[9],> 100 µM (inactive)
same,GI50,[10],> 100 µM (inactive)
same,GI50,[11],> 100 µM (inactive)
same,GI50,[12],> 100 µM (inactive)
same,GI50,[13],> 100 µM
same,GI50,[58],> 100 µM (inactive)
same,GI50,[52],> 100 µM (inactive)
same,GI50,[14],> 100 µM (inactive)
same,GI50,[53],32.5 µM (inactive)
same,GI50,[15],> 100 µM (inactive)
same,GI50,[16],> 100 µM (inactive)
same,GI50,[17],> 100 µM (inactive)
same,GI50,[18],> 100 µM (inactive)
same,GI50,[19],> 100 µM (inactive)
same,GI50,[20],> 100 µM (inactive)
same,GI50,[21],> 100 µM (inactive)
same,GI50,[22],> 100 µM (inactive)
same,GI50,[23],> 100 µM (inactive)
same,GI50,[24],79.3 µM (inactive)
same,GI50,[25],> 100 µM (inactive)
same,GI50,[26],> 100 µM (inactive)
same,GI50,[27],> 100 µM (inactive)
same,GI50,[28],> 100 µM (inactive)
same,GI50,[29],> 100 µM (inactive)
same,GI50,[30],> 100 µM (inactive)
same,GI50,[31],> 100 µM (inactive)
same,GI50,[32],> 100 µM (inactive)
same,GI50,[33],> 100 µM (inactive)
same,GI50,[34],> 100 µM (inactive)
same,GI50,[54],> 100 µM (inactive)
same,GI50,[35],> 100 µM (inactive)
same,GI50,[36],> 100 µM (inactive)
same,GI50,[37],> 100 µM (inactive)
same,GI50,[38],> 100 µM (inactive)
same,GI50,[39],> 100 µM (inactive)
same,GI50,[40],> 100 µM (inactive)
same,GI50,[41],> 100 µM (inactive)
same,GI50,[55],> 100 µM (inactive)
same,GI50,[42],> 100 µM (inactive)
same,GI50,[43],> 100 µM (inactive)
same,GI50,[44],> 100 µM (inactive)
same,GI50,[45],> 100 µM (inactive)
same,GI50,[47],> 100 µM (inactive)
same,GI50,[56],> 100 µM (inactive)
same,GI50,[48],> 100 µM (inactive)
same,GI50,[49],> 100 µM (inactive)
same,GI50,[50],> 100 µM (inactive)
same,GI50,[51],> 100 µM (inactive)
